Experimental data from patent US20250002507A1, “7,8-DIHYDRO-5H-1,6-NAPHTHYRIDINE DERIVATIVES AS POSITIVE ALLOSTERIC MODULATORS OF THE MUSCARINIC ACETYLCHOLINE RECEPTOR M4 FOR TREATING NEUROLOGICAL AND PSYCHIATRIC DISORDERS” (Vanderbilt University, priority 2021, published 2025).

Biological target: T1, Human M4 (Homo sapiens, UniProt P08173)
T1 construct: expressed in transfected cells
T1 sequence (P08173 1-479): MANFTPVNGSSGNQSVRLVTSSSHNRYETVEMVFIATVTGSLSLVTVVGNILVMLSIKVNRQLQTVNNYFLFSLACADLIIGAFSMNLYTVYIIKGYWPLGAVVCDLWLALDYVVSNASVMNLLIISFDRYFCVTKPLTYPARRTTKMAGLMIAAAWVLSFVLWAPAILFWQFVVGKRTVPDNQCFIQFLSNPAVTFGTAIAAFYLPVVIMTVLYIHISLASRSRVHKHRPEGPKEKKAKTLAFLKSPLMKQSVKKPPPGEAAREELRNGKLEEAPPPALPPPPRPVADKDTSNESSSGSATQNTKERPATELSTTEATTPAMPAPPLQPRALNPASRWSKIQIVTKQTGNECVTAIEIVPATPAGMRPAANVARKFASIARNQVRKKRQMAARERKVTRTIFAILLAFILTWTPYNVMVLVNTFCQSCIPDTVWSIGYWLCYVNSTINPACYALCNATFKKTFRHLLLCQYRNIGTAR
Assay: mAChR M4 cell-based functional assay (calcium flux, potentiation of EC20 acetylcholine response), hM4-Gqi5 CHO-K1 cells
Details: Table 3; for Emax at 30 µM: CHO-K1, Human M4, % ACh maximum at 30 μM, read-out: Emax (% ACh maximum at 30 μM); for EC50: potentiation of EC20 acetylcholine response, calcium flux, CHO-K1 cells, read-out: Human M4 EC50
In short: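 CHO-K1 cells stably expressing human M4 with chimeric Gqi5, loaded with Fluo-4 AM 50 min at 37 °C; calcium flux read by FDSS. 11-point 1:3 compound curves added, then EC20 acetylcholine at 144 s; potentiation of the EC20 response fitted by four-parameter logistic to give EC50 and Emax.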

Compound | Emax at 30 µM [%] | EC50 [nM]
Cc1c(N2CCc3ncc(N4CCOc5ccccc54)cc3C2)nn2c(C(F)(F)F)nnc2c1C [Compound 230, 4-(6-(7,8-dimethyl-3-(trifluoromethyl)-[1,2,4]triazolo[4,3-b]pyridazin-6-yl)-5,6,7,8-tetrahydro-1,6-naphthyridin-3-yl)-3,4-dihydro-2H-benzo[b][1,4]oxazine] | 83 | 398
Cc1c(N2CCc3ncc(N4CCCc5ccccc54)cc3C2)nn2c(C(F)(F)F)nnc2c1C [Compound 231, 3-(3,4-dihydroquinolin-1(2H)-yl)-6-(7,8-dimethyl-3-(trifluoromethyl)-[1,2,4]triazolo[4,3-b]pyridazin-6-yl)-5,6,7,8-tetrahydro-1,6-naphthyridine] | 65 | 1930
Cc1cc2nncn2nc1N1CCc2ncc(C(C)(C)O)cc2C1 [Compound 233, 2-(6-(7-methyl-[1,2,4]triazolo[4,3-b]pyridazin-6-yl)-5,6,7,8-tetrahydro-1,6-naphthyridin-3-yl)propan-2-ol] | 97 | 4010
CCn1cc(-c2cnc3c(c2)CN(c2nn4c(C(F)(F)F)nnc4c(C)c2C)CC3)cn1 [Compound 237, 6-(7,8-dimethyl-3-(trifluoromethyl)-[1,2,4]triazolo[4,3-b]pyridazin-6-yl)-3-(1-ethyl-1H-pyrazol-4-yl)-5,6,7,8-tetrahydro-1,6-naphthyridine] | 84 | 332
Cc1c(N2CCc3ncc(-c4cnn(Cc5ccccc5)c4)cc3C2)nn2c(C(F)(F)F)nnc2c1C [Compound 238, 3-(1-benzyl-1H-pyrazol-4-yl)-6-(7,8-dimethyl-3-(trifluoromethyl)-[1,2,4]triazolo[4,3-b]pyridazin-6-yl)-5,6,7,8-tetrahydro-1,6-naphthyridine] | 55 | 1310
COc1cnc(Cl)c(-c2cnc3c(c2)CN(c2nn4c(C(F)(F)F)nnc4c(C)c2C)CC3)c1 [Compound 239, 3-(2-chloro-5-methoxypyridin-3-yl)-6-(7,8-dimethyl-3-(trifluoromethyl)-[1,2,4]triazolo[4,3-b]pyridazin-6-yl)-5,6,7,8-tetrahydro-1,6-naphthyridine] | 57 | 613
Cc1c(N2CCc3ncc(-c4ccc(N(C)C)nc4)cc3C2)nn2c(C(F)(F)F)nnc2c1C [Compound 241, 5-(6-(7,8-dimethyl-3-(trifluoromethyl)-[1,2,4]triazolo[4,3-b]pyridazin-6-yl)-5,6,7,8-tetrahydro-1,6-naphthyridin-3-yl)-N,N-dimethylpyridin-2-amine] | 61 | 1230
Cc1c(N2CCc3ncc(-n4cccc4)cc3C2)nn2c(C(F)(F)F)nnc2c1C [Compound 244, 6-(7,8-dimethyl-3-(trifluoromethyl)-[1,2,4]triazolo[4,3-b]pyridazin-6-yl)-3-(1H-pyrrol-1-yl)-5,6,7,8-tetrahydro-1,6-naphthyridine] | 86 | 546
Cc1c(N2CCc3ncc(-c4ccc(F)nc4)cc3C2)nn2c(C(F)(F)F)nnc2c1C [Compound 245, 6-(7,8-dimethyl-3-(trifluoromethyl)-[1,2,4]triazolo[4,3-b]pyridazin-6-yl)-3-(6-fluoropyridin-3-yl)-5,6,7,8-tetrahydro-1,6-naphthyridine] | 80 | 680
Cc1c(N2Cc3cc(C(F)(F)F)cnc3C(C)C2)nn2cnnc2c1C (centres unmarked) [Compound 246, 6-(7,8-dimethyl-[1,2,4]triazolo[4,3-b]pyridazin-6-yl)-8-methyl-3-(trifluoromethyl)-5,6,7,8-tetrahydro-1,6-naphthyridine] | 90 | 408
Cc1c(N2CCc3ncc(-n4cccn4)cc3C2)nn2c(C(F)(F)F)nnc2c1C [Compound 247, 6-(7,8-dimethyl-3-(trifluoromethyl)-[1,2,4]triazolo[4,3-b]pyridazin-6-yl)-3-(1H-pyrazol-1-yl)-5,6,7,8-tetrahydro-1,6-naphthyridine] | 74 | 308
Cc1c(N2CCc3ncc(-n4ccc5ccccc54)cc3C2)nn2c(C(F)(F)F)nnc2c1C [Compound 248, 6-(7,8-dimethyl-3-(trifluoromethyl)-[1,2,4]triazolo[4,3-b]pyridazin-6-yl)-3-(1H-indol-1-yl)-5,6,7,8-tetrahydro-1,6-naphthyridine] | 58 | 2310

Continued by falling EC50, values first:

Emax at 30 µM [%] | EC50 [nM] | Compound
76 | 788 | Cc1c(N2CCc3ncc(-c4cnn(C5CCC5)c4)cc3C2)nn2c(C(F)(F)F)nnc2c1C [Compound 235, 3-(1-cyclobutyl-1H-pyrazol-4-yl)-6-(7,8-dimethyl-3-(trifluoromethyl)-[1,2,4]triazolo[4,3-b]pyridazin-6-yl)-5,6,7,8-tetrahydro-1,6-naphthyridine]
77 | 729 | Cc1cc(C)n(-c2cnc3c(c2)CN(c2nn4c(C(F)(F)F)nnc4c(C)c2C)CC3)n1 [Compound 243, 3-(3,5-dimethyl-1H-pyrazol-1-yl)-6-(7,8-dimethyl-3-(trifluoromethyl)-[1,2,4]triazolo[4,3-b]pyridazin-6-yl)-5,6,7,8-tetrahydro-1,6-naphthyridine]
80 | 696 | Cc1c(N2CCc3ncc(-n4nccc4C)cc3C2)nn2c(C(F)(F)F)nnc2c1C [Compound 242, 6-(7,8-dimethyl-3-(trifluoromethyl)-[1,2,4]triazolo[4,3-b]pyridazin-6-yl)-3-(5-methyl-1H-pyrazol-1-yl)-5,6,7,8-tetrahydro-1,6-naphthyridine]
83 | 353 | Cc1c(N2CCc3ncc(N4CCOc5ccc(F)cc54)cc3C2)nn2c(C(F)(F)F)nnc2c1C [Compound 232, 4-(6-(7,8-dimethyl-3-(trifluoromethyl)-[1,2,4]triazolo[4,3-b]pyridazin-6-yl)-5,6,7,8-tetrahydro-1,6-naphthyridin-3-yl)-6-fluoro-3,4-dihydro-2H-benzo[b][1,4]oxazine]
78 | 330 | Cc1c(N2CCc3ncc(-c4cnn(C5CC5)c4)cc3C2)nn2c(C(F)(F)F)nnc2c1C [Compound 234, 3-(1-cyclopropyl-1H-pyrazol-4-yl)-6-(7,8-dimethyl-3-(trifluoromethyl)-[1,2,4]triazolo[4,3-b]pyridazin-6-yl)-5,6,7,8-tetrahydro-1,6-naphthyridine]
65 | 165 | Cc1cnn(C)c1-c1cnc2c(c1)CN(c1nn3c(C(F)(F)F)nnc3c(C)c1C)CC2 [Compound 236, 3-(1,4-dimethyl-1H-pyrazol-5-yl)-6-(7,8-dimethyl-3-(trifluoromethyl)-[1,2,4]triazolo[4,3-b]pyridazin-6-yl)-5,6,7,8-tetrahydro-1,6-naphthyridine]
77 | 158 | Cc1c(N2CCc3ncc(-c4cnn(C)c4)cc3C2)nn2c(C(F)(F)F)nnc2c1C [Compound 240, 6-(7,8-dimethyl-3-(trifluoromethyl)-[1,2,4]triazolo[4,3-b]pyridazin-6-yl)-3-(1-methyl-1H-pyrazol-4-yl)-5,6,7,8-tetrahydro-1,6-naphthyridine]
